Test results published in the NIST ThermoML archive (doi:10.1021/je0342825).
± gives the expanded uncertainty stated by the source.

Assay: xn = mol fraction of the nth substance listed
Details: 101.3 kPa, Liquid

Work on `CC(=O)O` [acetic acid] + CCO yielded a mass density (293.15 K, x1 = 0.0493) of 803.5 ± 0.44 kg/m3, a speed of sound (293.15 K, x1 = 0.0493) of 1168 ± 1 m/s and a viscosity (293.15 K, x1 = 0.0493) of 1.19 ± 0.015 mPa·s. For the same compound, the mass density (293.15 K, x1 = 0.1004) was 817.3 ± 0.43 kg/m3, the speed of sound (293.15 K, x1 = 0.1004) was 1173 ± 1 m/s and the viscosity (293.15 K, x1 = 0.1004) was 1.195 ± 0.015 mPa·s. For the same compound, the mass density (293.15 K, x1 = 0.1992) was 844.8 ± 0.4 kg/m3, the speed of sound (293.15 K, x1 = 0.1992) was 1182 ± 1 m/s and the viscosity (293.15 K, x1 = 0.1992) was 1.23 ± 0.016 mPa·s. For the same compound, the mass density (293.15 K, x1 = 0.2971) was 871.59 ± 0.39 kg/m3, the speed of sound (293.15 K, x1 = 0.2971) was 1190 ± 1 m/s and the viscosity (293.15 K, x1 = 0.2971) was 1.276 ± 0.016 mPa·s. The mass density (293.15 K, x1 = 0.3962) was 898.37 ± 0.38 kg/m3, the speed of sound (293.15 K, x1 = 0.3962) was 1195 ± 1 m/s and the viscosity (293.15 K, x1 = 0.3962) was 1.336 ± 0.017 mPa·s. It also gave a mass density (293.15 K, x1 = 0.4961) of 924.97 ± 0.39 kg/m3, a speed of sound (293.15 K, x1 = 0.4961) of 1197 ± 2 m/s and a viscosity (293.15 K, x1 = 0.4961) of 1.383 ± 0.018 mPa·s. It also gave a mass density (293.15 K, x1 = 0.5981) of 951.75 ± 0.4 kg/m3, a speed of sound (293.15 K, x1 = 0.5981) of 1196 ± 2 m/s and a viscosity (293.15 K, x1 = 0.5981) of 1.432 ± 0.018 mPa·s. It also gave a mass density (293.15 K, x1 = 0.7031) of 978.85 ± 0.42 kg/m3, a speed of sound (293.15 K, x1 = 0.7031) of 1192 ± 2 m/s and a viscosity (293.15 K, x1 = 0.7031) of 1.444 ± 0.019 mPa·s. For the same compound, the mass density (293.15 K, x1 = 0.7973) was 1002.17 ± 0.45 kg/m3, the speed of sound (293.15 K, x1 = 0.7973) was 1184 ± 2 m/s and the viscosity (293.15 K, x1 = 0.7973) was 1.419 ± 0.018 mPa·s. For the same compound, the mass density (293.15 K, x1 = 0.8979) was 1026.4 ± 0.51 kg/m3, the speed of sound (293.15 K, x1 = 0.8979) was 1171 ± 2 m/s and the viscosity (293.15 K, x1 = 0.8979) was 1.338 ± 0.018 mPa·s. It also gave a mass density (293.15 K, x1 = 0.9515) of 1038.72 ± 0.54 kg/m3, a speed of sound (293.15 K, x1 = 0.9515) of 1161 ± 2 m/s and a viscosity (293.15 K, x1 = 0.9515) of 1.275 ± 0.017 mPa·s. The mass density (293.15 K, x1 = 1) was 1049.3 ± 0.57 kg/m3, the speed of sound (293.15 K, x1 = 1) was 1149 ± 2 m/s and the viscosity (293.15 K, x1 = 1) was 1.211 ± 0.016 mPa·s. The mass density (298.15 K, x1 = 0.0493) was 799.15 ± 0.45 kg/m3, the speed of sound (298.15 K, x1 = 0.0493) was 1151 ± 1 m/s and the viscosity (298.15 K, x1 = 0.0493) was 1.083 ± 0.014 mPa·s. For the same compound, the mass density (298.15 K, x1 = 0.1004) was 812.87 ± 0.43 kg/m3, the speed of sound (298.15 K, x1 = 0.1004) was 1156 ± 1 m/s and the viscosity (298.15 K, x1 = 0.1004) was 1.089 ± 0.014 mPa·s. For the same compound, the mass density (298.15 K, x1 = 0.1992) was 840.2 ± 0.41 kg/m3, the speed of sound (298.15 K, x1 = 0.1992) was 1165 ± 1 m/s and the viscosity (298.15 K, x1 = 0.1992) was 1.12 ± 0.014 mPa·s. The mass density (298.15 K, x1 = 0.2971) was 866.86 ± 0.39 kg/m3, the speed of sound (298.15 K, x1 = 0.2971) was 1172 ± 1 m/s and the viscosity (298.15 K, x1 = 0.2971) was 1.162 ± 0.015 mPa·s. For the same compound, the mass density (298.15 K, x1 = 0.3962) was 893.5 ± 0.39 kg/m3, the speed of sound (298.15 K, x1 = 0.3962) was 1177 ± 1 m/s and the viscosity (298.15 K, x1 = 0.3962) was 1.215 ± 0.016 mPa·s. For the same compound, the mass density (298.15 K, x1 = 0.4961) was 919.96 ± 0.4 kg/m3, the speed of sound (298.15 K, x1 = 0.4961) was 1179 ± 2 m/s and the viscosity (298.15 K, x1 = 0.4961) was 1.258 ± 0.016 mPa·s. For the same compound, the mass density (298.15 K, x1 = 0.5981) was 946.59 ± 0.4 kg/m3, the speed of sound (298.15 K, x1 = 0.5981) was 1178 ± 2 m/s and the viscosity (298.15 K, x1 = 0.5981) was 1.297 ± 0.017 mPa·s. For the same compound, the mass density (298.15 K, x1 = 0.7031) was 973.55 ± 0.42 kg/m3, the speed of sound (298.15 K, x1 = 0.7031) was 1175 ± 2 m/s and the viscosity (298.15 K, x1 = 0.7031) was 1.31 ± 0.017 mPa·s. The mass density (298.15 K, x1 = 0.7973) was 996.74 ± 0.45 kg/m3, the speed of sound (298.15 K, x1 = 0.7973) was 1166 ± 2 m/s and the viscosity (298.15 K, x1 = 0.7973) was 1.291 ± 0.017 mPa·s. It also gave a mass density (298.15 K, x1 = 0.8979) of 1020.84 ± 0.5 kg/m3, a speed of sound (298.15 K, x1 = 0.8979) of 1153 ± 2 m/s and a viscosity (298.15 K, x1 = 0.8979) of 1.225 ± 0.016 mPa·s. The mass density (298.15 K, x1 = 0.9515) was 1033.11 ± 0.53 kg/m3, the speed of sound (298.15 K, x1 = 0.9515) was 1143 ± 2 m/s and the viscosity (298.15 K, x1 = 0.9515) was 1.172 ± 0.016 mPa·s. For the same compound, the mass density (298.15 K, x1 = 1) was 1043.65 ± 0.56 kg/m3, the speed of sound (298.15 K, x1 = 1) was 1132 ± 2 m/s and the viscosity (298.15 K, x1 = 1) was 1.115 ± 0.015 mPa·s. For the same compound, the mass density (303.15 K, x1 = 0.0493) was 794.78 ± 0.46 kg/m3, the speed of sound (303.15 K, x1 = 0.0493) was 1133 ± 1 m/s and the viscosity (303.15 K, x1 = 0.0493) was 0.989 ± 0.013 mPa·s. It also gave a mass density (303.15 K, x1 = 0.1004) of 808.39 ± 0.44 kg/m3, a speed of sound (303.15 K, x1 = 0.1004) of 1139 ± 1 m/s and a viscosity (303.15 K, x1 = 0.1004) of 0.994 ± 0.013 mPa·s. It also gave a mass density (303.15 K, x1 = 0.1992) of 835.58 ± 0.42 kg/m3, a speed of sound (303.15 K, x1 = 0.1992) of 1148 ± 1 m/s and a viscosity (303.15 K, x1 = 0.1992) of 1.023 ± 0.013 mPa·s. The mass density (303.15 K, x1 = 0.2971) was 862.09 ± 0.4 kg/m3, the speed of sound (303.15 K, x1 = 0.2971) was 1155 ± 1 m/s and the viscosity (303.15 K, x1 = 0.2971) was 1.06 ± 0.014 mPa·s. For the same compound, the mass density (303.15 K, x1 = 0.3962) was 888.6 ± 0.39 kg/m3, the speed of sound (303.15 K, x1 = 0.3962) was 1160 ± 1 m/s and the viscosity (303.15 K, x1 = 0.3962) was 1.108 ± 0.014 mPa·s. For the same compound, the mass density (303.15 K, x1 = 0.4961) was 914.93 ± 0.4 kg/m3, the speed of sound (303.15 K, x1 = 0.4961) was 1162 ± 2 m/s and the viscosity (303.15 K, x1 = 0.4961) was 1.152 ± 0.015 mPa·s. For the same compound, the mass density (303.15 K, x1 = 0.5981) was 941.42 ± 0.4 kg/m3, the speed of sound (303.15 K, x1 = 0.5981) was 1160 ± 2 m/s and the viscosity (303.15 K, x1 = 0.5981) was 1.183 ± 0.016 mPa·s. For the same compound, the mass density (303.15 K, x1 = 0.7031) was 968.23 ± 0.42 kg/m3, the speed of sound (303.15 K, x1 = 0.7031) was 1157 ± 2 m/s and the viscosity (303.15 K, x1 = 0.7031) was 1.198 ± 0.016 mPa·s. For the same compound, the mass density (303.15 K, x1 = 0.7973) was 991.29 ± 0.45 kg/m3, the speed of sound (303.15 K, x1 = 0.7973) was 1149 ± 2 m/s and the viscosity (303.15 K, x1 = 0.7973) was 1.181 ± 0.016 mPa·s. The mass density (303.15 K, x1 = 0.8979) was 1015.28 ± 0.5 kg/m3, the speed of sound (303.15 K, x1 = 0.8979) was 1136 ± 2 m/s and the viscosity (303.15 K, x1 = 0.8979) was 1.126 ± 0.015 mPa·s. For the same compound, the mass density (303.15 K, x1 = 0.9515) was 1027.5 ± 0.53 kg/m3, the speed of sound (303.15 K, x1 = 0.9515) was 1126 ± 2 m/s and the viscosity (303.15 K, x1 = 0.9515) was 1.084 ± 0.015 mPa·s. For the same compound, the mass density (303.15 K, x1 = 1) was 1038 ± 0.56 kg/m3, the speed of sound (303.15 K, x1 = 1) was 1115 ± 2 m/s and the viscosity (303.15 K, x1 = 1) was 1.034 ± 0.014 mPa·s.
